Patent publication US20230416225A1, “DIAMINOPYRIMIDINE CARBOXAMIDE INHIBITORS OF HPK1” (MERCK SHARP & DOHME LLC, priority 2020, published 2023)

Molecular target: T1, Human HPK1, catalytic domain (Homo sapiens, UniProt Q92918)
T1 construct: purchased Carna
T1 sequence (Q92918 1-346): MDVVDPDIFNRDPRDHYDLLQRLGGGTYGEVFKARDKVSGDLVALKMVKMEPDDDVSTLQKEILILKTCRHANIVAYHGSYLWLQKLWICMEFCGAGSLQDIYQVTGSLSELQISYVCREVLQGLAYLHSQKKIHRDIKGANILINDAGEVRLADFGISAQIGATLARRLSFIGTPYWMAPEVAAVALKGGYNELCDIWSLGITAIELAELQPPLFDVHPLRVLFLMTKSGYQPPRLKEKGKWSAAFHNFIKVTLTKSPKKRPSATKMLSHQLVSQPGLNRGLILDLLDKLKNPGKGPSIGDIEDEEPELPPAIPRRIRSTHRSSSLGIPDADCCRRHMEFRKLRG
Test: HPK1-SLP76 TR-FRET assay
Format: biochemical
Settings: 75 pM HPK1, 10 uM ATP, 10 nM SLP76, 30 min compound pre-incubation

| IC50 [nM] | Compound |
| --- | --- |
| 2.62 | COc1cc2c(cc1Nc1ncc(C(N)=O)c(NC3CCc4cc(F)cc(F)c43)n1)CN(C)CC2 (centres unmarked) [Example 26-68, 4-[(5,7-difluoro-2,3-dihydro-1H-inden-1-yl)amino]-2-[(6-methoxy-2-methyl-1,2,3,4-tetrahydroisoquinolin-7-yl)amino]pyrimidine-5-carboxamide] |
| 42.5 | COc1ccc2c(c1)C(Nc1nc(Nc3cc4c(cc3OC)CCN(C)C4)ncc1C(N)=O)CC2 (centres unmarked) [Example 26-69, 4-[(6-methoxy-2,3-dihydro-1H-inden-1-yl)amino]-2-[(6-methoxy-2-methyl-1,2,3,4-tetrahydroisoquinolin-7-yl)amino]pyrimidine-5-carboxamide] |
| 2.71 | COc1cc2c(cc1Nc1ncc(C(N)=O)c(NC3CCc4c(F)ccc(F)c43)n1)CN(C)CC2 (centres unmarked) [Example 26-70, 4-[(4,7-difluoro-2,3-dihydro-1H-inden-1-yl)amino]-2-[(6-methoxy-2-methyl-1,2,3,4-tetrahydroisoquinolin-7-yl)amino]pyrimidine-5-carboxamide] |
| 32.8 | COc1cc2c(cc1Nc1ncc(C(N)=O)c(NC3CCc4ccc(C)cc43)n1)CN(C)CC2 (centres unmarked) [Example 26-71, 2-[(6-methoxy-2-methyl-1,2,3,4-tetrahydroisoquinolin-7-yl)amino]-4-[(6-methyl-2,3-dihydro-1H-inden-1-yl)amino]pyrimidine-5-carboxamide] |
| 1.23 | COc1cc2c(cc1Nc1ncc(C(N)=O)c(NCC3CCNCC3)n1)CN(C)CC2 [Example 26-72, 2-[(6-methoxy-2-methyl-1,2,3,4-tetrahydroisoquinolin-7-yl)amino]-4-{[(piperidin-4-yl)methyl]amino}pyrimidine-5-carboxamide] |
